Assay results: ChEMBL document CHEMBL1148667, “1,2,4-Oxadiazolidin-3,5-diones and 1,3,5-triazin-2,4,6-triones as cytosolic phospholipase A2alpha inhibitors” (Bioorg Med Chem Lett, 2006)
Calls of active or inactive are those of the source. The calls are words filed in the database; no cut-off is given here.

Columns and labels:
[1] = biological target: T1, Cytosolic phospholipase A2 (Homo sapiens, UniProt P47712); experiment: Inhibition of cPLA2-alpha by GLU micelle assay
T1 sequence (P47712 whole entry): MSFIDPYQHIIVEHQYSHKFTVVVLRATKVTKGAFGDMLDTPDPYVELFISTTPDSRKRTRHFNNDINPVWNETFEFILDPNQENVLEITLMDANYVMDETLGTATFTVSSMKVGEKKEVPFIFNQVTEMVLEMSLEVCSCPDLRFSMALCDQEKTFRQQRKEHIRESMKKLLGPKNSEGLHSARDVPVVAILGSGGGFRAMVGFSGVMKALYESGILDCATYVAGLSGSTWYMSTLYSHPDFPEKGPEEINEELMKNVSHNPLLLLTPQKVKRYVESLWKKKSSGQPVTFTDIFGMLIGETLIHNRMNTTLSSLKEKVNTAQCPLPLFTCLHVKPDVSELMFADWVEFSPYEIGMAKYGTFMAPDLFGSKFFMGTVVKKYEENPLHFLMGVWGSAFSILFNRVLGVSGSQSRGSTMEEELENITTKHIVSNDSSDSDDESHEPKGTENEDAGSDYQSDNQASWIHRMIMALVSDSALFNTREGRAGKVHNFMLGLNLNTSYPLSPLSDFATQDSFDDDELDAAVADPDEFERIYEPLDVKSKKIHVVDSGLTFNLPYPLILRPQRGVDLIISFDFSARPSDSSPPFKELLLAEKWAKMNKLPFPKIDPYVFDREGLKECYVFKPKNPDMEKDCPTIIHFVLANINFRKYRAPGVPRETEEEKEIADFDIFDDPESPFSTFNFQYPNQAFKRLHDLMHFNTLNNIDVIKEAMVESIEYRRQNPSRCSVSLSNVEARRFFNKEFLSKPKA

[2] = Inhibition of LTB4 production in MC9 cell line; format: functional, cell-based; details: Mus musculus
[3] = Inhibition of PGF2-alpha production in MC9 cell line; format: functional, cell-based; details: Mus musculus
MC9 = experiment: Inhibition of PGF2-alpha production in MC9 cell line in presence of arachidonic acid; format: functional, cell-based; details: Mus musculus
[4] = Inhibition of ionophore-stimulated TXB2 production in rat whole blood; format: functional, tissue-based

## O=C(O)c1ccc(OCCn2c(=O)n(Cc3ccccc3)c(=O)n(C(c3ccccc3)c3ccccc3)c2=O)cc1
[1]
  IC50: 3.5 µM

## O=C(O)c1ccc(OCCn2c(=O)on(C(c3ccccc3)c3ccccc3)c2=O)cc1
[1]
  IC50: > 50 µM

## O=C(O)c1ccc(OCCCn2c(=O)on(CC(c3ccccc3)c3ccccc3)c2=O)cc1
[1]
  IC50: 12.4 µM

## O=C(O)c1ccc(OCCn2c(=O)on(C(Cc3ccccc3)Cc3ccccc3)c2=O)cc1
[1]
  IC50: > 50 µM

## O=C(O)c1cccc(OCCn2c(=O)on(CC(c3ccccc3)c3ccccc3)c2=O)c1
[1]
  IC50: > 50 µM

## O=C(O)c1ccc(OCCn2c(=O)n(-c3ccccc3)c(=O)n(C(c3ccccc3)c3ccccc3)c2=O)cc1
[1]
  IC50: > 50 µM

## C=CCn1c(=O)n(C/C=C/COc2ccc(C(=O)O)cc2)c(=O)n(C(c2ccccc2)c2ccccc2)c1=O
[1]
  IC50: 1.3 µM

## O=C(O)c1ccc(OCCn2c(=O)on(CC(c3ccccc3)c3ccccc3)c2=O)cc1O
[1]
  IC50: 27 µM

## O=C(O)c1ccc(OCCn2c(=O)on(CC(c3ccccc3)c3ccccc3)c2=O)cc1
[1]
  IC50: 6.7 µM

## O=C(O)c1ccc(OCCn2c(=O)n(Cc3ccccc3)c(=O)n(CC(c3ccccc3)c3ccccc3)c2=O)cc1
[1]
  IC50: 30 µM

## CCCCn1c(=O)n(CCOc2ccc(C(=O)O)cc2)c(=O)n(C(c2ccccc2)c2ccccc2)c1=O
[1]
  IC50: 5.6 µM

## CCCCn1c(=O)n(C/C=C/COc2ccc(C(=O)O)cc2)c(=O)n(C(c2ccccc2)c2ccccc2)c1=O
[1]
  IC50: 2.4 µM

## O=C(O)c1ccc(OC/C=C/Cn2c(=O)on(CC(c3ccccc3)c3ccccc3)c2=O)cc1
[1]
  IC50: > 50 µM

## O=C(O)c1ccc(OC/C=C/Cn2c(=O)n(Cc3ccccc3)c(=O)n(C(c3ccccc3)c3ccccc3)c2=O)cc1
[1]
  IC50: 1.3 µM
[2]
  IC50: 0.5 µM
[3]
  IC50: 0.8 µM
MC9
  Activity: inactive
[4]
  IC50: 5.2 µM

## CCn1c(=O)n(CCOc2ccc(C(=O)O)cc2)c(=O)n(C(c2ccccc2)c2ccccc2)c1=O
[1]
  IC50: 7.5 µM

## O=C(O)c1ccc(OCC#CCn2c(=O)on(CC(c3ccccc3)c3ccccc3)c2=O)cc1
[1]
  IC50: 23 µM

## C=CCn1c(=O)n(CCOc2ccc(C(=O)O)cc2)c(=O)n(C(c2ccccc2)c2ccccc2)c1=O
[1]
  IC50: 5 µM

## CCn1c(=O)n(C/C=C/COc2ccc(C(=O)O)cc2)c(=O)n(C(c2ccccc2)c2ccccc2)c1=O
[1]
  IC50: 1.6 µM

## O=C(O)c1ccc(OCCCCn2c(=O)on(CC(c3ccccc3)c3ccccc3)c2=O)cc1
[1]
  IC50: > 50 µM
